Laboratory results published in patent US11845760B2, “PRMT5 inhibitors” (AMGEN INC., priority 2020, dated 2023).
Where two headings read alike, the source gives them in different places.

Experiments:
[1] = system: HCT116 MTAP null cells; test: HCT116 MTAP null cell line proliferation (CellTiter-Glo cell viability, 6 days); format: cell-based; conditions: HCT116 MTAP null cells, 6 days of treatment, CellTiter-Glo cell viability, read-out: HCT-116 MTAP null IC50
In short: (§1)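 Viability by CellTiter-Glo after 6 days' drug exposure in wild-type HCT116 and its MTAP-null knockout, with DMSO-only control. Dosing used either 1:3 steps (top 1 or 10 μM) or 22 points in 1:2 steps (top 10 or 50 μM). IC50 taken where the fitted curve crosses 50% of control.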

[2] = system: HCT116 WT cells; test: HCT116 WT cell line proliferation (CellTiter-Glo cell viability, 6 days); format: cell-based; conditions: HCT116 WT (parent) cells, 6 days of treatment, CellTiter-Glo cell viability, read-out: HCT-116 WT IC50
In short: as §1

Row | Structure (SMILES) | IC50 ([1]; HCT116-MTAP null, 144 h) [nM] | IC50 ([2]; Homo sapiens, HCT-116, 144 h) [nM] | IC50 [1] [nM] | IC50 [2] [nM]
1 | Nc1nc2ccc(C(=O)N3CCOC[C@H]3c3ccc(C(F)(F)F)cn3)cc2c2c1COC2 (single isomer, unassigned) [Example 571] | > 1000 | > 10000 |  | 
2 | C[C@@H]1COC[C@H](c2ccc(C(F)(F)F)cn2)N1C(=O)c1ccc2nc(N)c3c(cnn3C)c2c1 [Example 370, (4-amino-3-methyl-3H-pyrazolo[3,4-c]quinolin-8-yl)((3R,5S)-3-methyl-5-(5-(trifluoromethyl)-2-pyridinyl)-4-morpholinyl)methanone] | 30 | 2020 |  | 
3 | C[C@H]1COC[C@@H](c2ccc(OC(F)(F)F)cc2)N1C(=O)c1ccc2nc(N)c3c(c2c1)COC3 (single isomer, unassigned) [Example 587] | > 1000 | > 10000 |  | 
4 | CCOc1ccc([C@@H]2COC[C@H](C)N2C(=O)c2cc3c4c(c(N)nc3cc2F)COC4)nn1 (racemic) [Example 327, (4-amino-7-fluoro-1,3-dihydrofuro[3,4-c]quinolin-8-yl)((3R,5S)-3-(6-ethoxy-3-pyridazinyl)-5-methyl-4-morpholinyl)methanone and (4-amino-7-fluoro-1,3-dihydrofuro[3,4-c]quinolin-8-yl)((3S,5R)-3-(6-ethoxy-3-pyridazinyl)-5-methyl-4-morpholinyl)methanone] | 43 | 2400 |  | 
5 | Nc1nc2cnc(C(=O)N3CCOC[C@@H]3c3ccc(CC(F)(F)F)cc3)cc2c2c1COC2 (single isomer, unassigned) [Example 604] | 87 | 7270 |  | 
6 | C[C@@H]1COC[C@H](c2ccc(OC(F)(F)F)cc2)N1C(=O)c1ccc2nc(N)c3c(c2c1)COC3 (single isomer, unassigned) [Example 588] | 14 | 466 |  | 
7 | Cn1ncc2c(N)nc3cc(Cl)c(C(=O)N4CCC(c5ccc(C(F)(F)F)cn5)C4)cc3c21 (racemic) [Example 543, (4-amino-7-chloro-1-methyl-1H-pyrazolo[4,3-c]quinolin-8-yl)((3R)-3-(5-(trifluoromethyl)-2-pyridinyl)-1-pyrrolidinyl)methanone and (4-amino-7-chloro-1-methyl-1H-pyrazolo[4,3-c]quinolin-8-yl)((3S)-3-(5-(trifluoromethyl)-2-pyridinyl)-1-pyrrolidinyl)methanone] | 18 | 1860 |  | 
8 | C[C@@H]1COC[C@H](c2ccc(OC(F)F)nn2)N1C(=O)c1cc2c3c(c(N)nc2cn1)COC3 (racemic) [Example 381, (4-amino-1,3-dihydrofuro[3,4-c][1,7]naphthyridin-8-yl)((3R,5S)-3-(6-(difluoromethoxy)-3-pyridazinyl)-5-methyl-4-morpholinyl)methanone and (4-amino-1,3-dihydrofuro[3,4-c][1,7]naphthyridin-8-yl)((3S,5R)-3-(6-(difluoromethoxy)-3-pyridazinyl)-5-methyl-4-morpholinyl)methanone] |  |  | 84 | 2570
9 | Cn1ncc2c(N)nc3cnc(C(=O)N4CCOC[C@@H]4c4ccc(S(F)(F)(F)(F)F)cc4)cc3c21 [Example 448, (4-amino-1-methyl-1H-pyrazolo [4,3-c][1,7]naphthyridin-8-yl)((3S)-3-(4-(pentafluoro-lambda~6~-sulfanyl)phenyl)-4-morpholinyl)methanone] | 6 | 130 |  | 
10 | Nc1nc2ccc(C(=O)N3CCOC[C@@H]3c3cccc(Cl)c3)cc2c2c1COC2 (single isomer, unassigned) [Example 579] | 182 | 7570 |  | 
11 | Nc1nc2ccc(C(=O)N3CCOCC3c3ccc(Br)nn3)cc2c2c1COC2 (racemic) [Example 500, (4-amino-1,3-dihydrofuro[3,4-c]quinolim-8-yl)-[rac-(3S)-3-(6-bromopyridazin-3-yl)morpholin-4-yl]methanone] | > 1000 | > 10000 |  | 
12 | Nc1nc2cc(Cl)c(C(=O)N3CCOCC3c3ccnc(C(F)(F)F)c3)cc2c2c1COC2 (racemic) [Example 353, (4-amino-7-chloro-1,3-dihydrofuro[3,4-c]quinolin-8-yl)((3R)-3-(2-(trifluoromethyl)-4-pyridinyl)-4-morpholinyl)methanone and (4-amino-7-chloro-1,3-dihydrofuro[3,4-c]quinolin-8-yl)((3S)-3-(2-(trifluoromethyl)-4-pyridinyl)-4-morpholinyl)methanone] |  |  | 234 | 6890
13 | CC1OCc2c1c(N)nc1ccc(C(=O)N3C(C)COCC3c3ccc(OC(F)F)nn3)cc21 (mixture of isomers) [Example 317, ((3R)-4-amino-3-methyl-1,3-dihydrofuro[3,4-c]quinolin-8-yl)((3R,5S)-3-(6-(difluoromethoxy)-3-pyridazinyl)-5-methyl-4-morpholinyl)methanone and ((3R)-4-amino-3-methyl-1,3-dihydrofuro[3,4-c]quinolin-8-yl)((3S,5R)-3-(6-(difluoromethoxy)-3-pyridazinyl)-5-methyl-4-morpholinyl)methanone] |  |  | 53 | 2370
14 | Nc1nc2cnc(C(=O)N3CCOC[C@H]3c3cnc(C(F)(F)F)cn3)cc2c2c1COC2 (single isomer, unassigned) [Example 614] |  |  | > 10000 | > 10000
15 | Cn1ncc2c(N)nc3cc(F)c(C(=O)N4CC(c5ccc(C(F)(F)F)cn5)C4)cc3c21 [Example 428, (4-amino-7-fluoro-1-methyl-1H-pyrazolo[4,3-c]quinolin-8-yl)(3-(5-(trifluoromethyl)-2-pyridinyl)-1-azetidinyl)methanone] | 74 | 8400 |  | 
16 | Nc1nc2cnc(C(=O)N3CCOC[C@@H]3c3cnc(C(F)(F)F)cn3)cc2c2c1COC2 (single isomer, unassigned) [Example 613] | 1830 | > 10000 |  | 
17 | C[C@H]1OCc2c1c(N)nc1ccc(C(=O)N3C[C@@H](c4ccccc4)[C@@H]4CCC[C@@H]43)cc21 [Example 400, ((3R)-4-amino-3-methyl-1,3-dihydrofuro[3,4-c]quinolin-8-yl)((3R,3aS,6aS)-3-phenylhexahydrocyclopenta[b]pyrrol-1(2H)-yl)methanone] | 159 | 7000 |  | 
18 | C[C@H]1OCc2c1c(N)nc1ccc(C(=O)N3CCOC[C@@H]3c3ccnc(C(F)(F)F)c3)cc21 (racemic) [Example 354, ((3R)-4-amino-3-methyl-1,3-dihydrofuro[3,4-c]quinolin-8-yl)((3R)-3-(2-(trifluoromethyl)-4-pyridinyl)-4-morpholinyl)methanone and ((3R)-4-amino-3-methyl-1,3-dihydrofuro[3,4-c]quinolin-8-yl)((3S)-3-(2-(trifluoromethyl)-4-pyridinyl)-4-morpholinyl)methanone] | 487 | > 10000 |  | 
19 | C[C@H]1OCc2c1c(N)nc1ccc(C(=O)N3[C@@H](C)COC[C@H]3c3ccc(C(F)(F)F)cn3)cc21 (racemic) [Example 372, ((3R)-4-amino-3-methyl-1,3-dihydrofuro[3,4-c]quinolin-8-yl)((3R,5S)-3-methyl-5-(5-(trifluoromethyl)-2-pyridinyl)-4-morpholinyl)methanone and ((3R)-4-amino-3-methyl-1,3-dihydrofuro[3,4-c]quinolin-8-yl)((3S,5R)-3-methyl-5-(5-(trifluoromethyl)-2-pyridinyl)-4-morpholinyl)methanone] | 23 | 613 |  | 
20 | Nc1nc2cc(F)c(C(=O)N3CCOCC3c3ccnc(C(F)(F)F)c3)cc2c2c1COC2 (racemic) [Example 352, (4-amino-7-fluoro-1,3-dihydrofuro[3,4-c]quinolin-8-yl)((3R)-3-(2-(trifluoromethyl)-4-pyridinyl)-4-morpholinyl)methanone and (4-amino-7-fluoro-1,3-dihydrofuro[3,4-c]quinolin-8-yl)((3S)-3-(2-(trifluoromethyl)-4-pyridinyl)-4-morpholinyl)methanone] |  |  | 717 | 20700
21 | C[C@H]1OCc2c1c(N)nc1cnc(C(=O)N3[C@@H](C)COC[C@H]3c3ccc(Cl)nc3)cc21 (racemic) [Example 310, ((3R)-4-amino-3-methyl-1,3-dihydrofuro[3,4-c][1,7]naphthyridin-8-yl)((3R,5S)-3-(6-chloro-3-pyridinyl)-5-methyl-4-morpholinyl)methanone and ((3R)-4-amino-3-methyl-1,3-dihydrofuro[3,4-c][1,7]naphthyridin-8-yl)((3S,5R)-3-(6-chloro-3-pyridinyl)-5-methyl-4-morpholinyl)methanone] | 66 | 3230 |  | 
22 | C[C@H]1OCc2c1c(N)nc1ccc(C(=O)N3C[C@@H](c4ccc(F)cc4)[C@H](c4cc[nH]n4)C3)cc21 (racemic) [Example 434, ((3R)-4-amino-3-methyl-1,3-dihydrofuro[3,4-c]quinolin-8-yl)((3R,4S)-3-(4-fluorophenyl)-4-(1H-pyrazol-3-yl)-1-pyrrolidinyl)methanone and ((3R)-4-amino-3-methyl-1,3-dihydrofuro[3,4-c]quinolin-8-yl)((3S,4R)-3-(4-fluorophenyl)-4-(1H-pyrazol-3-yl)-1-pyrrolidinyl)methanone] | 468 | 8220 |  | 
23 | C[C@@H]1CN(C(=O)c2ccc3nc(N)c4c(c3c2)COC4)[C@@H](c2ccc(OC(F)(F)F)cc2)CO1 (single isomer, unassigned) [Example 585] | > 1000 | > 10000 |  | 
